Laboratory results taken from BindingDB's records for doi:10.1016/j.bmc.2007.07.054 (Yeungnam University, 2007).

Experiments:
Phospholipase A2 = Phospholipase A2 (Rattus norvegicus, UniProt P04055); test: Inhibition of rat cloned sPLA2-1B expressed in HEK293 cells
[1] = biological target: T1, Group 10 secretory phospholipase A2 (Homo sapiens, UniProt O15496); test: Inhibition of human cloned sPLA2-10 expressed in HEK293 cells
T1 sequence (O15496 whole entry): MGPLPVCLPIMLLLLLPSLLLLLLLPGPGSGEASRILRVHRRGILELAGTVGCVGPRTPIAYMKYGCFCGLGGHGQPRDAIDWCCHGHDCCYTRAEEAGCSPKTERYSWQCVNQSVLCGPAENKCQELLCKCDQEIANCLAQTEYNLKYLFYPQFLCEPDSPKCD

[2] = biological target: T2, Cytosolic phospholipase A2 (Homo sapiens, UniProt P47712); test: Inhibition of human cloned cPLA2 expressed in HEK293 cells
T2 sequence (P47712 whole entry): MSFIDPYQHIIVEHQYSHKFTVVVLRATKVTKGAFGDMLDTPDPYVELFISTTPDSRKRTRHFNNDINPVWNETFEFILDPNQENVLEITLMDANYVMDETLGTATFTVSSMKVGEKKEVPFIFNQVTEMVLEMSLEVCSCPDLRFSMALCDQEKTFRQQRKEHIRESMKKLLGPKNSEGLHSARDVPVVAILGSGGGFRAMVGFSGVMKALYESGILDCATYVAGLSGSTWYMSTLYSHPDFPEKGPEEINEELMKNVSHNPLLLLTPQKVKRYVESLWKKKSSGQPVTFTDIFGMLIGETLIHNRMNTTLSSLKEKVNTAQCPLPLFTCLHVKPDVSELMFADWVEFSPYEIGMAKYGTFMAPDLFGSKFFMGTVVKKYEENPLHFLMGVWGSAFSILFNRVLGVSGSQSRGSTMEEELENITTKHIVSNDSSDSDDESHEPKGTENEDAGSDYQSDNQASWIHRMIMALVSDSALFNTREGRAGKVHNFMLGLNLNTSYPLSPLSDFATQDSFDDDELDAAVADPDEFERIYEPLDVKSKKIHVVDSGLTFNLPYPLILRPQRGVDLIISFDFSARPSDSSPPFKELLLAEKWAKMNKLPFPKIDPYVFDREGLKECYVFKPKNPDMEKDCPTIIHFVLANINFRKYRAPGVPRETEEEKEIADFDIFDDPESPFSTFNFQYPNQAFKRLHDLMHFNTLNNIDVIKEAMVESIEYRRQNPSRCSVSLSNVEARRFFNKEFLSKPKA

Measured: IC50

Sequence of Phospholipase A2 (P04055 whole entry): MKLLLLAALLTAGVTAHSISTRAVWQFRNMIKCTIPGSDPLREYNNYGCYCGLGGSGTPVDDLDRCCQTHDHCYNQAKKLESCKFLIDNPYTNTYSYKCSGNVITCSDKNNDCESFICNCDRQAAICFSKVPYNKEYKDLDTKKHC

O=c1cc(O)cc2oc(-c3ccc(O)c(-c4c(O)cc(O)c5c(=O)cc(-c6ccc(O)cc6)oc45)c3)cc(O)c1-2
> 100 µM: all assays above

O=c1cc(O)cc2oc(-c3ccc(Oc4cc(-c5cc(O)c6c(=O)cc(O)cc-6o5)ccc4O)cc3)cc(O)c1-2
> 100 µM: all assays above
